Source: patent publication US10501479B2, “Benzenesulfonyl-asymmetric ureas and medical uses thereof” (HELSINN HEALTHCARE SA, priority 2016, dated 2019)
Values joined by “and” are separate entries in the source; they are usually repeats but may differ in a detail not shown here. Identical values can stand only once. Like-named read-outs stand apart in the source and are kept apart here.

Legend:
[1] = target: T1, recombinant human ghrelin receptor (HEK293/GRLN) (Homo sapiens, UniProt Q92847); assay: Ghrelin inverse agonist potency (EC50) with IP-1 (IP-One HTRF) assay; type: cell-based; details: IP-1 assay
T1 construct: expressed in transfected cells
Method in brief: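 IP-1 accumulation was measured by HTRF (IP1-d2/Tb-cryptate, 620/665 nm read after 1 hour at room temperature) following 1 hour of compound treatment at 37° C. Cells were HEK293 stably expressing human ghrelin receptor, plated a day earlier on Matrigel. Inverse agonist potency was reported as EC50.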

[2] = target: T2, GHSR-1a (HEK293/GHSR1a cell line) (Homo sapiens, UniProt Q92847); assay: Ghrelin antagonist potency (IC50) with calcium FLIPR assay, ghrelin 10 nM; type: cell-based
T2 construct: expressed in transfected cells; host or cells: HEK293/GHSR1a cell line
Method in brief: (§1)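 Fluorescence read-out of intracellular calcium over 2 min. Agonist EC50 came from compound added alone at t=20 sec. Antagonist IC50 came from the reduction of the response to 10 nM ghrelin co-added with compound at t=20 sec. Both were fitted from dose-response data.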

[3] = Metabolic stability in human liver microsomes; type: in vitro ADME
Method in brief: (§2)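 Microsomes + compound, 100 mM K phosphate pH 7.4, 37 °C; 5 min preincubation, NADPH regenerating system added to start. Aliquots at 0/10/30/90 min into cold quench, spun 5000×g, supernatant diluted, LC-MS/MS.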

[4] = Metabolic stability in mouse liver microsomes; type: in vitro ADME
Method in brief: as §2

[5] = Plasma protein binding (PPB), human; type: in vitro ADME; details: read-out: PPB (H)
[6] = Plasma protein binding (PPB), mouse; type: in vitro ADME
[7] = target: T2, GHSR-1a (HEK293/GHSR1a cell line); assay: Ghrelin agonist potency (EC50) with calcium FLIPR assay; type: cell-based; details: HEK293/GHSR1a, read-out: Activity EC50/EMax: EC50 (ghrelin agonist potency)
Method in brief: as §1

[8] = Plasma protein binding (PPB), human; type: in vitro ADME; details: read-out: PPB (H) (converted)
[9] = Plasma protein binding (PPB), mouse; type: in vitro ADME; remark: listed apart in the source
[10] = Animal PK study in mouse via i.v., p.o. and s.c. administration; type: in vivo; details: for Vd / clearance / half-life: plasma; for clearance: read-out: PK CL i.v.
Method in brief: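 Plasma drug levels were measured by LC-MS/MS after acetonitrile precipitation, with blood drawn up to 24 h post-dose (from 0.083 h i.v./s.c., 0.25 h oral) in mice or rats. Animals received one dose by gavage in DMSO/methylcellulose, or by tail-vein or subcutaneous injection in DMSO/HP-β-cyclodextrin.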

[11] = Metabolic stability in dog liver microsomes; type: in vitro ADME
Description: Metabolic Stability Study
The metabolic stability of compounds in human, dog, rat and mouse liver microsomes was performed according the experimental conditions reported below:
• a) Prepare the following 5 stock solutions: • 1. Test compound stock solutions: dilute 10 mM solution of dextromethorphan (Dtr) in DMSO, 10 mM solution of diphenhydramine (DPA) in DMSO, 10 mM solution of omeprazole (Ome) in DMSO, 10 mM solution of verapamil (Ver) in DMSO, and 10 mM of an inverse agonist compound in DMSO to 0.25 mM solution each with acetonitrile/water (70/30). • 2. Buffer: 100 mM potassium phosphate Buffer (PBS) at pH 7.4 • 3. Liver microsomes (20 mg/ml): Thaw in 37° C. water bath quickly • 4. 2000 μL: of NADPH regenerating system (1.3 mM). Place this system on ice before use:
• 5. […] The test compound concentration in the wells, measured by LC-MS/MS, represents the concentration at time=0. • f) To determine the test compound concentration when t≠0, pre-incubate the NADPH regenerating system and the incubation plate containing the remaining 320 μL of incubation mixture (microsomes protein and test compound) for 5 minutes at 37° C. • g) Start the incubation reaction by adding 80 μL NADPH regenerating system to each well containing the remaining 320 μL incubation mixture. • h) After 10 min., 30 min., and 90 min. of incubation at 37° C., transfer 100 μL of the incubation mixture (microsomes protein, test compound, and NADPH) into the wells of a stop plate pre-filled with 300 μL of the cold quench solution. Shake well. • i) Centrifuge the stop plate at 5000×g for 10 minutes. Collect and dilute the supernatant 3 times with distilled water. Sample and analyze the test compound concentration for all the wells by LC-MS/MS. Animal PK Studies via i.v. (intravenous), p.o. (orally) and s.c. (subcutaneous) administrations

[12] = Animal PK study in rat via i.v., p.o. and s.c. administration; type: in vivo; details: rat, i.p.
[13] = HEK293/GRLN, read-out: Activity EC50 (ghrelin inverse agonist potency)
[14] = HEK293/GHSR1a, ghrelin 10 nM, read-out: Activity IC50 (ghrelin antagonist potency)
[15] = iv, 5 mg/kg, i.v., read-out: PK t1/2 i.v.
[16] = po, 10 mg/kg, p.o., read-out: PK t1/2 p.o.

T2 sequence (Q92847 whole entry): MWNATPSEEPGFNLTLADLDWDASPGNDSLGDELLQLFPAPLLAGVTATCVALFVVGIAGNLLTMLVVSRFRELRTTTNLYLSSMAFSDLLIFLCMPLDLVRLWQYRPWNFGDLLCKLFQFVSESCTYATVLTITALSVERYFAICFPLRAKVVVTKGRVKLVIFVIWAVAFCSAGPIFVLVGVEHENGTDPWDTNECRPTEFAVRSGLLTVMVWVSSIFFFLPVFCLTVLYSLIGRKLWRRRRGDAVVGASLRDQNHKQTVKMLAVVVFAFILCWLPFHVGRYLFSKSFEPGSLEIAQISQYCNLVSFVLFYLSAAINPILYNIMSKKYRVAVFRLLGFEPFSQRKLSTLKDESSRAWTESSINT
T1 sequence (Q92847 whole entry): as above

| SMILES | Metabolic Stability Study H = human [3] | Metabolic Stability Study M = mouse [4] | EC50 [1, 13] | EC50 [7] | IC50 [2, 14] | fraction unbound [8] | fraction unbound [9] | PK F [10] | PK CL p.o. ([10]; p.o.) | PK Vd p.o. ([10]; p.o.) | Vd ([10]; iv, 5 mg/kg) | clearance ([10]; iv, 5 mg/kg, i.v.) | half-life [10, 15] | half-life [10, 16] | further results |
| --- | --- | --- | --- | --- | --- | --- | --- | --- | --- | --- | --- | --- | --- | --- | --- |
| COc1ccc([C@H](C)NC(=O)Nc2ccc(S(=O)(=O)Nc3ccc4c(c3)CCN(C)C4)cc2)c(Cl)c1Cl [H1017] | 11.5 µL/min/mg | 30.5 µL/min/mg | – | – | – | – | – | – | – | – | – | – | – | – | EC50 ([1]; inverse agonist potency, read-out: EC50 (Activity)): 9.8 nM; IC50 ([2]; ghrelin antagonist potency, read-out: IC50 (Activity)): 72 nM; fraction unbound [5]: 0.001; fraction unbound [6]: 0.0003 |
| CC(NC(=O)Nc1ccc(S(=O)(=O)Cc2ccc3c(c2)CNC3)cc1)c1ccccc1Cl.Cl (centres unmarked) [H1261, 1-(1-(2-chlorophenyl)ethyl)-3-(4-((isoindolin-5-ylmethyl)sulfonyl)phenyl)urea] | 48.8 µL/min/mg | 23 µL/min/mg | 2.2 nM | > 30000 nM | 1.57 nM | 0.045 | 0.019 | – | – | – | – | – | – | – | – |
| CC(NC(=O)Nc1ccc(S(=O)(=O)Cc2ccc3c(c2)CNC3)cc1)c1ccc(F)cc1 (centres unmarked) [H1262, 1-(1-(4-fluorophenyl)ethyl)-3-(4-((isoindolin-5-ylmethyl)sulfonyl)phenyl)urea] | 18.2 µL/min/mg | 11.2 µL/min/mg | 7.5 nM | > 30000 nM | 10.6 nM | 0.099 | 0.05 | 1.13% | 1847 mL/min/kg | 307 L/kg | 1.69 L/kg | 21.8 mL/min/kg | 0.89 h | 1.92 h | – |
| C[C@H](NC(=O)Nc1ccc2c(c1)CC(c1ccc3c(c1)CNC3)S2(=O)=O)c1ccccc1 (stereo partly drawn) [H1264, 1-(2-(isoindolin-5-yl)-1,1-dioxido-2,3-dihydrobenzo[b]thiophen-5-yl)-3-((S)-1-phenylethyl)urea] | H < 10 M < 10 R = not reported D = not reported μL/min/mg | H < 10 M < 10 R = not reported D = not reported μL/min/mg | – | – | 4.4 nM | 0.221 | 0.185 | 0.36% | – | 627.9 L/kg | 4.83 L/kg | 48.2 mL/min/kg | 1.16 h | 0.64 h | – |
| CC(c1ccccc1)N(C)C(=O)Nc1ccc(S(=O)(=O)Cc2ccc3c(c2)CN(C)C3)cc1 (centres unmarked) [H1381, 1-methyl-3-(4-(((2-methylisoindolin-5-yl)methyl)sulfonyl)phenyl)-1-(1-phenylethyl)urea] | 60 µL/min/mg | 68.1 µL/min/mg | 22.1 nM and 33.1 nM | – | 480 nM and 257 nM | 0.0906 | 0.0854 | 20.64% | 295 mL/min/kg | 42.87 L/kg | 3.1 L/kg | 63.8 mL/min/kg | – | 1.68 h | Metabolic Stability Study D = dog [11]: 88.7 µL/min/mg |
| COc1cc(S(=O)(=O)Cc2ccc3c(c2)CN(C)C3)ccc1NC(=O)NC(C)c1ccccc1 (centres unmarked) [H1388, 1-(2-methoxy-4-(((2-methylisoindolin-5-yl)methyl)sulfonyl)phenyl)-3-(1-phenylethyl)urea] | 58.1 µL/min/mg | 42.4 µL/min/mg | 4.6 nM | > 30000 nM | 10.2 nM | 0.031 | 0.079 | 11.3% | 675 mL/min/kg | 86.8 L/kg | 6.3 L/kg | 77.7 mL/min/kg | 0.93 h | 1.49 h | – |
| COc1ccc([C@@H](C)NC(=O)Nc2ccc(S(=O)(=O)Cc3ccc4c(c3)CCN(C)C4)cc2)c(Cl)c1Cl [H1417, (R)-1-(1-(2,3-dichloro-4-methoxyphenyl)ethyl)-3-(4-(((2-methyl-1,2,3,4-tetrahydroisoquinolin-6-yl)methyl)sulfonyl)phenyl)urea] | 48.9 µL/min/mg | 53.4 µL/min/mg | 9.73 nM | > 30000 nM | 45 nM | 0.0015 | 0.0012 | 11.80% | 226.8 mL/min/kg | 24.97 L/kg | 4.74 L/kg | 26.2 mL/min/kg | 2.09 h | 1.27 h | – |
| COc1cc(S(=O)(=O)Cc2ccc3c(c2)CNC3)ccc1NC(=O)NC(C)c1cccc2ccccc12.O=C(O)C(F)(F)F (centres unmarked) [H1419, 1-(4-((isoindolin-5-ylmethyl)sulfonyl)-2-methoxyphenyl)-3-(1-(naphthalen-1-yl)ethyl)urea] | 33.1 µL/min/mg | 45.1 µL/min/mg | 0.5 nM | > 30000 nM | 4.4 nM | 0.0041 | 0.0031 | – | – | – | – | – | – | – | – |
| COc1cc(S(=O)(=O)Cc2ccc3c(c2)CNC3)ccc1NC(=O)NC(C)c1ccccc1F.O=C(O)C(F)(F)F (centres unmarked) [H1420, 1-(1-(2-fluorophenyl)ethyl)-3-(4-((isoindolin-5-ylmethyl)sulfonyl)-2-methoxyphenyl)urea] | 17.4 µL/min/mg | 50.6 µL/min/mg | 1 nM | > 30000 nM | 22 nM | 0.028 | 0.0461 | – | – | – | – | – | – | – | – |
| COc1cc(S(=O)(=O)Cc2ccc3c(c2)CNC3)ccc1NC(=O)NC(C)c1cccc(Cl)c1Cl.Cl (centres unmarked) [H1421, 1-(1-(2,3-dichlorophenyl)ethyl)-3-(4-((isoindolin-5-ylmethyl)sulfonyl)-2-methoxyphenyl)urea] | 13.2 µL/min/mg | 38.8 µL/min/mg | 0.4 nM | > 50000 nM | 1.8 nM | 0.0037 | 0.0034 | – | – | – | – | – | – | – | half-life ([12]; plasma, ip, read-out: PK t1/2 i.p. (R)): 19 h; PK CL i.p. (R) [12]: 32.7 mL/min/kg; PK Vd i.p. (R) [12]: 54.56 L/kg |
| COc1cc(S(=O)(=O)Cc2ccc3c(c2)CC(C)NC3)ccc1NC(=O)NC(C)c1ccccc1 (centres unmarked) [H1441, 1-(2-methoxy-4-(((3-methyl-1,2,3,4-tetrahydroisoquinolin-6-yl)methyl)sulfonyl)phenyl)-3-(1-phenylethyl)urea] | 17.3 µL/min/mg | 16.4 µL/min/mg | 4.3 nM and 3.3 nM | > 30000 nM | 14.9 nM and 40.4 nM | 0.0245 | 0.045 | – | – | – | – | – | – | – | – |
